Data reported in patent US7939083B2, “Soluble, stabilized, proteolytically cleaved, trimeric HIV-1 gp140 proteins comprising modifications in the N-terminus of the gp41 ectodomain” (Progenics Pharmaceuticals Inc., priority 2006, dated 2011).

Experiments:
[1] = Tween 20 aggregate conversion experiments (BN-PAGE); type: physicochemical; details: Tween 20 0.05%, 10 minutes, room temperature
Method: Tween® 20 Dose effect: 1 ug of purified KNH1144 SOSIP R6 trimer was incubated with varying concentrations of Tween® 20 (polyoxyethylene sorbitan monolaurate) ranging from 0 to 0.0001% (v/v) and incubated for 1 hour at room temperature. Following incubation, samples were analyzed by BN-PAGE as described above.
Kinetics of Tween® 20 effect: To ascertain the early kinetics of the Tween® 20 effect on aggregate, 1 ug of purified KNH1144 SOSIP R6 trimer was incubated with Tween® 20 at a final concentration of 0.05% (v/v) for 5 minutes and for 10 minutes. A no-detergent control was included separately for each timepoint.
Temperature dependance on Tween® 20 effect: To determine if temperature affected the ability of Tween® 20 to recover trimers from aggregates (i.e., collapse aggregate into trimer), 1 ug of purified KNH1144 SOSIP R6 trimer was incubated with Tween® 20 to a final concentration of 0.05% (v/v) at 0° C. […] Following the incubation, samples were analyzed by BN-PAGE and Coomassie staining.
Following the treatment, samples were analyzed by BN-PAGE and Coomassie staining.
Tween® 20 effect on -2-macroglogulin (a2M): 0.5 ug of purified -2-macroglobulin was either untreated or treated with Tween® 20 at a final concentration of 0.05% for 10 minutes at room temperature. Reactions were analyzed via BN-PAGE, followed by Coomassie staining.

[2] = DEAE anion exchange chromatography of Tween 20-treated trimers; type: physicochemical; details: Tween 20 treated (0.05%), TN-75 buffer
Method: Purified KNH1144 SOSIP R6 gp140 trimers, treated either with or without 0.05% Tween® 20 (final), containing a2M contaminant in TN-75 buffer was applied over 1 ml DEAE HiTrap FF column (equilibrated in TN-75) at 0.25 ml/min at RT and flow-through (FT) fractions were collected. Following sample loading, the column was washed with TN-75 at 0.5 ml/min and wash fractions were collected. Finally, the column was eluted with TN-300 and equal amounts from each fraction were analyzed via BN-PAGE, followed by Coomassie G-250 staining.

[3] = test system: JR-FL gp41 NT 1-5 Env-pseudotyped virus; type: cell-based, HIV-1 JR-FL; details: U87.CD4.CCR5 cells; in nM for T-20
Method: (§1) Pseudotyped virions bearing JR-FL envelope glycoproteins (WT and mutant) were produced by cotransfection of selected env clones with a luciferase-expressing reporter vector, pNL4-3Env(−)Luc(+), as described above. To measure infectivity, luciferase-expressing Env-pseudotyped viruses (50 μl) containing normalized amounts of p24 antigen were added to 3×10^3 U87.CD4.CCR5 cells/well. U87.CD4.CXCR4 cells were used as a negative control. After 4 days, th cells were lysed with 75 μl of 1× Glo lysis buffer (Promega, Calif.) for subsequent quantification of luciferase, which was expressed by the Env-pseudotyped virions that contain the gene for firefly luciferase inserted into the nef gene of HIV-1, using the Bright-Glo™ Luciferase Assay Substrate (Promega, Calif.) and a VICTOR3 1420 multilabel counter (Perkin Elmer Life Sciences, Mass.).
(§2) Neutralization of infectivity was performed as described previously (Trkola et al., 1998). The pseudovirions were incubated with an equal volume of various MAbs, CD4-IgG2, or T-20 for 1 hour at 37° C. before the residual infectivity was determined using U87.CD4.CCR5 cells as described above. The concentration of each inhibitor was expressed as the amount present after the inhibitor-virus mixture was added to the cells. The data were analyzed by non-linear regression (variable-slope sigmoidal dose response) to calculate the inhibitor concentrations that caused 50% reductions in luciferase expression (IC50), using the GraphPad Prism 4 software (maximal viral production in the absence of inhibitor was designated as 100%).

[4] = test system: JR-FL WT Env-pseudotyped virus; type: cell-based, HIV-1 JR-FL
Method: as §1, §2

Substance	effect of Tween 20 on BN-PAGE migration [1]	binding to DEAE column [2]	IC50 [3] [nM]	IC50 against WT Env-pseudotyped virus greater than against the mutant [4] [fold]	IC50 ([4]; U87.CD4.CCR5 cells, in nM for T-20) [nM]
a2M: acidic 726 kDa tetrameric glycoprotein, contaminant/control protein	No change was observed in the migratory pattern	bound to the DEAE column			
enfuvirtide			11.5	2	24.2
